Test results as given in patent US5663298A, “UCK14 compounds” (Kyowa Hakko Kogyo Co., Ltd., priority 1995, dated 1997).

Key:
[1] = test system: human pancreatic carcinoma PSN-1 cells; assay: Growth inhibition against human pancreatic carcinoma PSN-1 cells (MTT); format: cell-based; details: 72 hours culture, read-out: IC50 (50% growth inhibitory concentration) PSN-1
From the text: (§1) Growth inhibition against human epidermoid carcinoma A431 cells and human pancreatic carcinoma PSN-1 cells
(§2) Human epidermoid carcinoma A431 cells (ATCC CRL 1555) were suspended in Dulbecco's modified Eagle's medium (Nissui Pharmaceutical Co., Ltd.) supplemented with 10% fetal bovine serum (Filtron), and human pancreatic carcinoma PSN-1 cells [Biochem. Biophys. Res. Commun. 140, 167 (1986)] were suspended in RPMI-1640 medium (Gibco BRL) supplemented with 5% fetal bovine serum (Filtron). Each cell suspension was put into wells of a 96-well microtiter plate (#167008, Nunc) in an amount of 3×10^3 cells/well, followed by preincubation in a 5% CO2 -incubator at 37° C. for 24 hours. Then, 5mM solutions of UCK14A1, UCK14A2 and UCK14C were diluted stepwise and the resulting solutions were respectively added to the wells in an amount of 50 μl/well (highest final concentration: 1 mM). The cells were cultured in the 5% CO2 -incubator at 37° C. for 72 hours. Five hours before the end of culturing, 50 μl of a solution of MTT [3-(4,5-dimethylthiazo-2-yl)-2,5-diphenyltetrazolium bromide (Sigma Chemical Co., Ltd.)] in the medium (final concentration: 1 mg/ml) was added to each well. After the completion of culturing, DMSO was added to the wells in an amount of 150 μl/well, followed by vigorous stirring with a plate mixer to completely dissolve crystals of MTT-formazan. […]

[2] = test system: human epidermoid carcinoma A431 cells; assay: Growth inhibition against human epidermoid carcinoma A431 cells (MTT); format: cell-based; details: 72 hours culture, read-out: IC50 (50% growth inhibitory concentration) A431
From the text: as §1, §2

[3] = Solubility (physicochemical properties); details: qualitative, in various solvents
From the text: The physicochemical properties of UCK14 compounds are shown below.

In the case of `CCC(C)C1C(=O)OC1C(=O)NC1CC1CC(NC(=O)C(C)N)C(=O)O` (stereo not drawn) [UCK14A1], the IC50 [1] is reported as 16.1 µM, the IC50 [2] is reported as 25.2 µM and the Solubility [3] is reported as “Soluble in water, methanol and dimethylsulfoxide (DMSO); insoluble in hexane, chloroform and ethyl acetate”.
